Data on eight molecules can be found in patent EP1165534B1, “BENZOYLGUANIDINE DERIVATIVES WITH ADVANTAGEOUS PROPERTIES, METHOD FOR PRODUCING THEM AND THEIR USE IN THE PRODUCTION OF MEDICAMENTS” (Boehringer Ingelheim Pharma GmbH & Co.KG, priority 1998, dated 2000).

One data set addresses T1, Na^+/H^+-Austauscher (Homo sapiens, UniProt P19634).
T1 construct: HT-29-Zellen werden bei 37°C, 5% CO2 in Wachstumsmedium inkubiert; endogenous in cells; host or cells: HT-29 human colon cancer cells
Briefly: Inhibition of the Na+/H+ exchanger in human colon cancer cells (HT-29), BCECF fluorescence pH measurement. The format is cell-based. To be noted: HT-29-Zellen; 4 min, 37°C, pH 7.0. As for the experimental part: Inhibition des Na^+/H^+-Austauschers in humanen Darmkrebszellen (HT-29):
HT-29-Zellen werden bei 37°C, 5% CO2 in Wachstumsmedium inkubiert. Nach 3-5 Tagen wurde das Wachstumsmedium entfernt, die Zellen gewaschen und mit 7.5 µM BCECF-AM (pH-sensitiver Fluoreszenzfarbstoff) bei 37°C ohne CO2 beladen. Nach 30 min werden die Zellen gewaschen und mit folgendem Medium angesäuert: 70 mM Cholinchlorid, 20 mM NH4Cl, 1 mM MgCl2, 1.8 mM CaCl2, 5 mM Glucose und 15 mM HEPES, pH 7.5.
Nach 6 min Inkubation bei 37°C ohne CO2 werden die Zellen gewaschen und für 5 min mit Waschmedium inkubiert: 120 mM Cholinchlorid, 5 mM KCl, 1 mM MgCl2, 1.8 mM CaCl2, 5 mM Glucose und 15 mM MOPS, pH 7.0.
Das Waschmedium wird entfernt und Kontrollmedium mit oder ohne Testverbindung wird zugegeben: 120 mM NaCl, 5 mM KCl, 1 mM MgCl2, 1.8 mM CaCl2, 5 mM Glucose, 15 mM MOPS, pH 7.0.
Die Zellen werden 4 min bei 37°C ohne CO2 inkubiert und fluorimetrisch (CytoFluor 2350) vermessen. Die Fluoreszenz des Farbstoffes BCECF wird bei den Anregungswellenlängen 485 nm (pH-sensitiv) und 440 nm (nicht pH-sensitiv) und bei der Emissionswellenlänge 530 nm gemessen. Der cytoplasmatische pH wird aus dem Verhältnis der Fluoreszenzen bei 485 und 440 nm berechnet. Das Fluoreszenzverhältnis wird durch Messung des Fluoreszenzsignals nach Äquilibrierung von externem und internem pH mit Nigericin kalibriert.

A short description of data set [1]: Pharmacokinetics in male rats after i.v. and oral administration. It is filed as in vivo, Ratten. The conditions noted are these: not fasted; for F: non-compartmental analysis (TopFit); for half-life: rat, plasma. As for the experimental part: Pharmakokinetische Daten:
Für die Untersuchungen wurden männliche, ca. 200 g schwere Ratten (nicht nüchtern), verwendet. Zur intravenösen und oralen Applikation werden die Substanzen in einer angesäuerten wässerigen Lösung (pH 3) gelöst. Einzelne Bolus Injektionen (0.5 mg/kg i.v., 2.5 mg/kg p.o.) werden in die Schwanzvene injiziert (0.2 ml/200g) oder über eine Kanüle in den Magen gegeben (1 ml/200 g). Die Applikationslösungen werden analysiert, um die applizierte Dosis zu bestätigen. 0.5 ml Aliquots Blut werden vom retro-orbitalen Venenplexus unter kurzer Halothan-Betäubung mit heparinisierten Glass-Kapillaren nach folgendem Schema entnommen: • nach i.v. Applikation: 5 min, 15 min, 30 min, 1 h, 2 h, 4 h, 6 h, 8h; • nach oraler Applikation: 15 min, 1 h, 2 h, 4 h, 6 h, 8 h, 24 h, 32 h.
Die Proben werden zentrifugiert und das Plasma bis zur Analyse bei - 20°C gelagert. Die Proben-Vorbereitung erfolgt durch flüssig-flüssig Extraktion mit einem internen Standard. Die Plasmaextrakte werden mit Reversed Phase HPLC, gekoppelt mit einem Elektrospray-Tandem-Massenspektrometer analysiert. Die pharmakokinetischen Daten werden aus den entsprechenden PlasmaKonzentrationen durch Kompartiment-freie Analyse mit dem TopFit Programm bestimmt (Heinzel, G., Woloszczak, R., Thomann, P. TopFit 2.0 - Pharmacokinetic and pharmacodynamic data analysis, system for the PC, Gustav Fischer Verlag, Stuttgart, Jena, New York, 1993).

The mark [2] stands for this setting: iv, 0.5 mg/kg i.v., read-out: t1/2 (i.v.) (converted).
[3] abbreviates: po, 2.5 mg/kg p.o., read-out: t1/2 (p.o.) (converted).

Structures can show the parent of a compound that is named as a salt. Where two headings read alike, the source gives them in different places.

Usually IC50 stands for the concentration at which inhibition is half-maximal. Low values mean higher potency, high ones lower potency.

T1 sequence (P19634 whole entry): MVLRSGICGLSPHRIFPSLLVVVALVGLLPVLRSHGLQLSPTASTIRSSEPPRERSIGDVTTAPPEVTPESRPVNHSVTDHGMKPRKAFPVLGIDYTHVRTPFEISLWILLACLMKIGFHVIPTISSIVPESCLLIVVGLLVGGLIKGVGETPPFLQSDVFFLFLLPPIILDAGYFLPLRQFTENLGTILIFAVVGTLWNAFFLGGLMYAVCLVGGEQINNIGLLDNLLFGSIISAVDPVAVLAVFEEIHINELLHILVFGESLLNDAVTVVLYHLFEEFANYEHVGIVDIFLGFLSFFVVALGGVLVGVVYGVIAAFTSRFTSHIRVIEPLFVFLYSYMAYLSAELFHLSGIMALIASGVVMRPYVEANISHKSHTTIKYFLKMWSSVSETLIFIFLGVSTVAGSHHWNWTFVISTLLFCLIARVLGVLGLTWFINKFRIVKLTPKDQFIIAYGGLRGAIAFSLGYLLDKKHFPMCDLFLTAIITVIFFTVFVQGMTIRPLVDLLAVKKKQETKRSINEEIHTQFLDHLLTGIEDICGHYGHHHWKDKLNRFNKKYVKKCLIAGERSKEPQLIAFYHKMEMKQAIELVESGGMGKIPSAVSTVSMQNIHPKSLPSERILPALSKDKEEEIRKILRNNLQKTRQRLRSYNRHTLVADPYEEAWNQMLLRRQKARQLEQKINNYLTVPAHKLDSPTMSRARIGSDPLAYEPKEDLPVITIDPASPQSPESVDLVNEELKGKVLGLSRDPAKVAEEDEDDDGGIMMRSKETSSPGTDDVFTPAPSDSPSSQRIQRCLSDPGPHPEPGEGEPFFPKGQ

On to `Cc1cccc(C(=O)N2CCN(c3ccc(C(=O)NC(=N)N)cc3C(F)(F)F)CC2)c1` [Beispiel 8, 4-(4-(3-Methylphenylcarbonyl)-1-piperazinyl)-3-trifluormethylbenzoylguanidin-methansulfonat], for which the IC50 against Na^+/H^+-Austauscher was found to be 61 nM.

The molecule `N=C(N)NC(=O)c1ccc(N2CCN(C(=O)c3cccc(C(F)(F)F)c3)CC2)c(C(F)(F)F)c1` [Beispiel 5, 4-(4-(3-Trifluormethylphenylcarbonyl)-1-piperazinyl)-3-trifluormethylbenzoylguanidin-hydrochlorid] yielded a F in data set [1] (0.5 mg/kg i.v., 2.5 mg/kg p.o.) of 58. Moreover, the half-life was 5.4 h in data set [1] (setting [2]) and 7.5 h in data set [1] (setting [3]). In addition, the IC50 against Na^+/H^+-Austauscher was found to be 23 nM.

`N=C(N)NC(=O)c1ccc(N2CCN(C(=O)c3ccc[nH]3)CC2)c(C(F)(F)F)c1` [Beispiel 2, 4-(4-(2-Pyrrolylcarbonyl)-1-piperazinyl)-3-trifluormethylbenzoylguanidin-methansulfonat]: the F in data set [1] (0.5 mg/kg i.v., 2.5 mg/kg p.o.) was found to be 63. The values for the half-life in data set [1] (setting [2]) and in data set [1] (setting [3]) were 1.3 h and 5 h, respectively.

`COc1cccc(C(=O)N2CCN(c3ccc(C(=O)NC(=N)N)cc3C(F)(F)F)CC2)c1` [Beispiel 1, 4-(4-(3-Methoxyphenylcarbonyl)-1-piperazinyl)-3-trifluormethylbenzoylguanidin-hydrochlorid] came in with an IC50 against Na^+/H^+-Austauscher of 76 nM.

Consider `N=C(N)NC(=O)c1ccc(N2CCN(C(=O)c3ccc(F)cc3)CC2)c(C(F)(F)F)c1` [Beispiel 3, 4-(4-(4-Fluorphenylcarbonyl)-1-piperazinyl)-3-trifluormethylbenzoylguanidin-methansulfonat], for which, in data set [1] (0.5 mg/kg i.v., 2.5 mg/kg p.o.), the F came out at 71. Also, the half-life is 3.1 h in data set [1] (setting [2]) and 5.4 h in data set [1] (setting [3]). The IC50 on Na^+/H^+-Austauscher worked out at 38 nM.

As for `N=C(N)NC(=O)c1ccc(N2CCN(C(=O)c3ccco3)CC2)c(C(F)(F)F)c1` [Beispiel 7, 4-(4-(2-Furylcarbonyl)-1-piperazinyl)-3-trifluormethyl-benzoylguanidinmethansulfonat], on Na^+/H^+-Austauscher, the IC50 turned out to be 84 nM.

`COc1ccccc1C(=O)N1CCN(c2ccc(C(=O)NC(=N)N)cc2C(F)(F)F)CC1` [Beispiel 4, 4-(4-(2-Methoxyphenylcarbonyl)-1-piperazinyl)-3-trifluormethylbenzoylguanidin-hydrochlorid] displayed an IC50 at Na^+/H^+-Austauscher of 84 nM.

On Na^+/H^+-Austauscher, `N=C(N)NC(=O)c1ccc(N2CCN(C(=O)c3ccccn3)CC2)c(C(F)(F)F)c1` [Beispiel 10, 4-(4-(2-Pyridylcarbonyl)-1-piperazinyl)-3-trifluormethyl-benzoylguanidindimethansulfonat] displayed an IC50 of 79 nM.
